# Experiments:
# CCR2 = biological target: T1, CCR2 (Homo sapiens, UniProt P41597); test: MCP-1-induced CCR2 internalization / CCR2 receptor occupancy on monocytes (flow cytometry); assay type: cell-based
# T1 construct: endogenous in cells; host or cells: monocytes within PBMCs from HIV+ and HIV- subjects
# T1 sequence (P41597 1-360 isoform P41597-2): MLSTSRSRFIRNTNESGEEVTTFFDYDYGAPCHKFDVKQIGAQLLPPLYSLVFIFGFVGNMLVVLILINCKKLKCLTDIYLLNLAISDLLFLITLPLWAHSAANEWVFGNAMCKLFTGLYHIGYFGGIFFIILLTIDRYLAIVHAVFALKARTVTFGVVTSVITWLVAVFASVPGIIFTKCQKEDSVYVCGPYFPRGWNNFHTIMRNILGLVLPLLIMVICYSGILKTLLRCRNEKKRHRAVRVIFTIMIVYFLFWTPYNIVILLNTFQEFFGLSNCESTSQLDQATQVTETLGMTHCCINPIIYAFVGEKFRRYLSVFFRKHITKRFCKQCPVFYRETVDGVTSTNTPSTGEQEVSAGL
# Description: The capacity of each drug to inhibit CCR5 or CCR2 internalization was evaluated. Cell-surface expression of CCR5 and CCR2 was assessed by flow cytometry, and fluorescence values were converted into molecules of equivalent soluble fluorescence (MESF).
# MCP-1 = test: Study 201: MCP-1, hs-CRP and IL-6 levels; assay type: in vivo, human
# Description: Participants were required to be antiretroviral treatment-experienced, CCR5 antagonist-naive, with HIV-1 RNA levels of at least 5000 copies/mL and CD4+ cell counts of at least 250 cells/mm^3 was performed.
# Exploratory assessment of changes in MCP-1 (a ligand of CCR2, which is a chemokine co-receptor expressed on pro-inflammatory monocytes, also known as CCL2), hs-CRP, and IL-6 were performed and significant dose-dependent increases in MCP-1 were observed (Table 23).
compound,measurement,setting,value
"CCCCOCCOc1ccc(-c2ccc3c(c2)/C=C(/C(=O)Nc2ccc([S@@+]([O-])Cc4cncn4CCC)cc2)CCCN3CC(C)C)cc1 [CVC, (S)-8-[4-(2-Butoxyethoxy)phenyl]-1-isobutyl-N-(4-{[(1-propyl-1H-imidazol-5-yl)methyl]sulfinyl}phenyl)-1,2,3,4-tetrahydro-1-benzazocine-5-carboxamide]",Concentration at which saturation of monocyte CCR2 was reached,CCR2,6 nM
same,Concentration required to reach >80% CCR2 receptor occupancy (average),CCR2,1.8 nM
same,receptor occupancy at 0.006 µM,CCR2; at 6 nM,~98%
same,CCR2 cell-surface expression,CCR2; in the absence of MCP-1,induced CCR2 internalization and decreased cell-surface expression on monocytes
same,Effect on hs-CRP or IL-6 levels,"MCP-1; 10-day study, overall",no effect
same,"MCP-1 Baseline, Mean",MCP-1; CVC 25 mg,20.0 pg/mL
same,"MCP-1 Baseline, Median",MCP-1; CVC 25 mg,16.0 pg/mL
same,"MCP-1 Baseline, Range",MCP-1; CVC 25 mg,7 to 44 pg/mL
same,"MCP-1 Change from Baseline to Day 10, Median",MCP-1; CVC 25 mg,+25.0 pg/mL
same,"MCP-1 Day 10, Mean",MCP-1; CVC 25 mg,75.3 pg/mL
same,"MCP-1 Day 10, Median",MCP-1; CVC 25 mg,39.0 pg/mL
same,"MCP-1 Day 10, Range",MCP-1; CVC 25 mg,10 to 287 pg/mL
same,"MCP-1 Baseline, Mean",MCP-1; CVC 50 mg,12.6 pg/mL
same,"MCP-1 Baseline, Median",MCP-1; CVC 50 mg,6.0 pg/mL
same,"MCP-1 Baseline, Range",MCP-1; CVC 50 mg,5 to 37 pg/mL
same,"MCP-1 Change from Baseline to Day 10, Median",MCP-1; CVC 50 mg,+56.0 pg/mL
same,"MCP-1 Day 10, Mean",MCP-1; CVC 50 mg,101.3 pg/mL
same,"MCP-1 Day 10, Median",MCP-1; CVC 50 mg,65.0 pg/mL
same,"MCP-1 Day 10, Range",MCP-1; CVC 50 mg,21 to 266 pg/mL
same,"MCP-1 Baseline, Mean",MCP-1; CVC 75 mg,26.6 pg/mL
same,"MCP-1 Baseline, Median",MCP-1; CVC 75 mg,8.0 pg/mL
same,"MCP-1 Baseline, Range",MCP-1; CVC 75 mg,5 to 92 pg/mL
same,"MCP-1 Change from Baseline to Day 10, Median",MCP-1; CVC 75 mg,+36.0 pg/mL
same,"MCP-1 Day 10, Mean",MCP-1; CVC 75 mg,59.1 pg/mL
same,"MCP-1 Day 10, Median",MCP-1; CVC 75 mg,43.5 pg/mL
same,"MCP-1 Day 10, Range",MCP-1; CVC 75 mg,20 to 128 pg/mL
same,"MCP-1 Baseline, Mean",MCP-1; CVC 150 mg,31.6 pg/mL
same,"MCP-1 Baseline, Median",MCP-1; CVC 150 mg,19.5 pg/mL
same,"MCP-1 Baseline, Range",MCP-1; CVC 150 mg,8 to 82 pg/mL
same,"MCP-1 Change from Baseline to Day 10, Median",MCP-1; CVC 150 mg,+322.0 pg/mL
same,"MCP-1 Day 10, Mean",MCP-1; CVC 150 mg,372.0 pg/mL
same,"MCP-1 Day 10, Median",MCP-1; CVC 150 mg,368.0 pg/mL
same,"MCP-1 Day 10, Range",MCP-1; CVC 150 mg,79 to 605 pg/mL
